# Measured values: paper PMC7115410 (European Journal of Medicinal Chemistry, 2018)
# Like-named read-outs stand apart in the source and are kept apart here.
# How the values were obtained:
# [1] = test system: cleaved caspase 3, cleaved PARP 1, Bax, Bcl2; settings: FOLFOX-HT29 cells, different concentrations, 24 h
# [2] = test system: cleaved caspase 3, cleaved PARP 1, Bax, Bcl2; settings: FOLFOX-HCT116 cells, different concentrations, 24 h
# Chk1 phosphorylation [3] = settings: FOLFOX-HT29 cells, different concentrations, 24 h
# γH2AX = settings: HCT-116 cells, 7b (5, 10 and 20 μM), 24 h
# Chk1 phosphorylation [4] = settings: HCT116 cells
# HCT116 cells = settings: 25 μM 5-FU alone
# Chk1 = Chk1 (Homo sapiens, UniProt O14757); settings: in vitro Chk1 kinase assay, purified Chk1 protein
# Chk1, sequence (O14757 whole entry): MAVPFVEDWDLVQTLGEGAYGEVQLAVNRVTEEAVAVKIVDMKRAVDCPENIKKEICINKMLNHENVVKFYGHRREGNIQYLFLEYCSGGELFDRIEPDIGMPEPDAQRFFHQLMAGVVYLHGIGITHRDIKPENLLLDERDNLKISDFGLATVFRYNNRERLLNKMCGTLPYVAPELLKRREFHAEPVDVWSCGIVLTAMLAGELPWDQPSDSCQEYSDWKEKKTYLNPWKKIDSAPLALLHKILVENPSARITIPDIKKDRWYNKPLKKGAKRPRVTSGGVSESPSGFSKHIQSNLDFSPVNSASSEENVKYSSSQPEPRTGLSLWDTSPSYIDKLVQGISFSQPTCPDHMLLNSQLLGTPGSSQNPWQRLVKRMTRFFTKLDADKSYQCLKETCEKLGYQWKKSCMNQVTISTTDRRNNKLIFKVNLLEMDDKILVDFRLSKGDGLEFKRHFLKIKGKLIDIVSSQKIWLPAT
Compound,Levels of cleaved caspase 3 and PARP1 [1],Levels of cleaved caspase 3 and PARP1 [2],Chk1(S345P) phosphorylation (Chk1 phosphorylation [3]),also measured
"1-(3-Phenyl-allyl)-3,5,7-triaza-1-azonia-tricyclo[3.3.1.1^3,7]decane; chloride [Compound 7b]",increased levels,increased levels,increase,"γH2AX-foci, compound alone (γH2AX): increased γH2AX-foci; HU-induced phosphorylation of Chk1(S317P), Chk1(S345P) and Chk1(S296P) (Chk1 phosphorylation [4]; 1 mM HU for 24 h followed by 20 μM 7b for additional 8 h): reduced after combination treatment"
"O=c1[nH]cc(F)c(=O)[nH]1 [Compound 5-FU, 5-fluorouracil]",,,,Cell cycle profile (HCT116 cells): S phase arrest
"ClC/C=C/C[N+]12CN3CN(CN(C3)C1)C2.[Cl-] [Compound 7a, 1-(4-Chloro-but-2-enyl)-3,5,7-triaza-1-azonia-tricyclo[3.3.1.1^3,7]decane; chloride]",increased levels,increased levels,increase,Inhibition of Chk1 activity in a reconstituted purified system (Chk1): do not inhibit
"NC(=O)NO [HU, hydroxyurea, reference compound]",,,,"Phosphorylation of Chk1(S317P), Chk1(S345P) and Chk1(S296P) (Chk1 phosphorylation [4]; 1 mM HU alone): high level phosphorylation"
